Here are results for 25 molecules from patent US10899738B2 (THE REGENTS OF THE UNIVERSITY OF MICHIGAN, priority 2016, dated 2021).

Chain of menin protein (O00255 whole entry): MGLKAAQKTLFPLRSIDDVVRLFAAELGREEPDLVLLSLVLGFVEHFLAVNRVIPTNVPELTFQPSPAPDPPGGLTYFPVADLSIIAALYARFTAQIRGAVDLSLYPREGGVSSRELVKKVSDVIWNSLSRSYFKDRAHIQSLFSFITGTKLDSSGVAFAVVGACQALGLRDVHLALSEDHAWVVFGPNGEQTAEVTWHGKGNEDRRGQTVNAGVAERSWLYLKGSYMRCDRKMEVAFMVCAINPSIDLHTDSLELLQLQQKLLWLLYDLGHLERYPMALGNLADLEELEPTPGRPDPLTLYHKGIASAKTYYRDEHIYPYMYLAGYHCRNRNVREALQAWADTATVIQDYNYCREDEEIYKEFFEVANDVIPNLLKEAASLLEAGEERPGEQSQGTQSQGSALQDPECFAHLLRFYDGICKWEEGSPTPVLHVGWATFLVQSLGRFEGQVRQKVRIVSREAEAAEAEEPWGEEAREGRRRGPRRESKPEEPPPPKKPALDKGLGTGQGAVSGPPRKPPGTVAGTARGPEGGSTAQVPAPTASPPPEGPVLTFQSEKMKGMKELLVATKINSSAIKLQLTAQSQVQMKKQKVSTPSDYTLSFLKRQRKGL

The target of this experiment is menin protein (Homo sapiens (Human), UniProt O00255). In words: biochemical. In kind it is binding. The following applies: FP competitive binding; menin protein 4 nM, FAM-MM2 probe 2 nM; read-out: Menin Binding Affinity IC50. As to the method:
A fluorescence polarization (FP) competitive binding assay was used to determine the binding affinities of representative menin inhibitors. A FAM labeled fluorescent probe was designed and synthesized based on a MLL1 peptide (FAM-MM2). Equilibrium dissociation constant (Kd) value of FAM-MM2 to menin protein was determined from protein saturation experiments by monitoring the total fluorescence polarization of mixtures composed with the fluorescent probe at a fixed concentration and the protein with increasing concentrations up to full saturation. Serial dilutions of the protein were mixed with FAM-MM2 to a final volume of 200 μl in the assay buffer (PBS with 0.02% Bovine γ-Globulin and 4% DMSO. 0.01% Triton X-100 was added right before assays). Final FAM-MM2 concentration was 2 nM. Plates were incubated at room temperature for 30 minutes with gentle shaking to assure equilibrium.
The IC50, see Table 3, and Ki values of representative Compounds of the Disclosure were determined in a competitive binding experiment. Mixtures of 5 μl of the tested compounds in DMSO and 195 μl of preincubated protein/probe complex solution in the assay buffer were added into assay plates which were incubated at room temperature for 30 minutes with gentle shaking. Final concentration of the menin protein was 4 nM, and final probe concentration is 2 nM. […] FP values were measured as described above. IC50 values were determined by nonlinear regression fitting of the competition curves.
The term IC50 denotes the concentration needed to halve the response being measured. As for `CNC(=O)N[C@H]1CCC[C@@H]1C(CNC(=O)c1cocn1)(c1ccccc1)C1CCN(CC2CN(c3ccc(C#N)cc3)C2)CC1` (mixture of isomers) [compound 378, rac-N-(2-(1-((1-(4-cyanophenyl)azetidin-3-yl)methyl)piperidin-4-yl)-2-((1R,2S)-2-(3-methylureido)cyclopentyl)-2-phenylethyl)oxazole-4-carboxamide], the IC50 worked out at 32 nM.
On to `CC(=O)N[C@@H]1CCC[C@H]1C(C#N)(c1ccccc1)C1CCN(CC2CN(c3ccc(S(=O)(=O)c4ccncc4)cc3)C2)CC1` (mixture of isomers) [compound 264, rac-N-((1R,2S)-2-(cyano(phenyl)(1-((1-(4-(pyridin-4-ylsulfonyl)phenyl)azetidin-3-yl)methyl)piperidin-4-yl)methyl)cyclopentyl) acetamide], for which the concentration for half-maximal inhibition (IC50) was determined as 555 nM.
`N#Cc1ccc(OCCCN2CCC(C3(C4CCCCC4)NCCc4ccccc43)CC2)cc1` (stereo not shown) [compound 298, 4-(3-(4-(1-cyclohexyl-1,2,3,4-tetrahydroisoquinolin-1-yl)piperidin-1-yl)propoxy)benzonitrile]: the IC50 was found to be 300 nM.
Turning to `CCN1Cc2ccccc2C(C2CCCC2)(C2CCN(CC3(C)CN(c4ccc(S(=O)(=O)c5ccncc5)cc4)C3)CC2)C1` (stereo not shown) [compound 161, 4-cyclopentyl-2-ethyl-4-(1-((3-methyl-1-(4-(pyridin-4-ylsulfonyl)phenyl)azetidin-3-yl)methyl)piperidin-4-yl)-1,2,3,4-tetrahydroisoquinoline], the half-inhibitory concentration (IC50) amounted to 21 nM.
As for `O=S(=O)(c1ccncc1)c1ccc(N2CC(CN3CCC(C4(C5CCCC5)CN(CC5COC5)Cc5ccccc54)CC3)C2)cc1` (stereo not shown) [compound 52, 4-cyclopentyl-2-(oxetan-3-ylmethyl)-4-(1-((1-(4-(pyridin-4-ylsulfonyl)phenyl)azetidin-3-yl)methyl)piperidin-4-yl)-1,2,3,4-tetrahydroisoquinoline], the IC50 came out at 25 nM.
For the molecule `O=S(=O)(c1ccc(N2CC(CN3CCC(C4(C5CCCC5)NCCc5ccccc54)CC3)C2)cc1)C1CCOCC1` (stereo not shown) [compound 97, 1-cyclopentyl-1-(1-((1-(4-((tetrahydro-2H-pyran-4-yl)sulfonyl)phenyl)azetidin-3-yl)methyl)piperidin-4-yl)-1,2,3,4-tetrahydroisoquinoline], the IC50 was determined as 49 nM.
`CNC(=O)O[C@@H]1CCC[C@H]1C(C#N)(c1ccccc1)C1CCN(CC2CN(c3ccc(S(=O)(=O)c4ccncc4)cc3)C2)CC1` (mixture of isomers) [compound 216, rac-(1R,2S)-2-(cyano(phenyl)(1-((1-(4-(pyridin-4-ylsulfonyl)phenyl)azetidin-3-yl)methyl)piperidin-4-yl)methyl)cyclopentyl methylcarbamate]: the concentration for half-maximal inhibition (IC50) stood at 396 nM.
In the case of `CNC(=O)O[C@H]1CCC[C@@H]1C(C#N)(c1ccccc1)C1CCN(CC2CN(c3ccc(C(=O)OC)cc3)C2)CC1` (mixture of isomers) [compound 373, methyl rac-4-(3-((4-(cyano((1R,2S)-2-((methylcarbamoyl)oxy)cyclopentyl)(phenyl)methyl)piperidin-1-yl)methyl)azetidin-1-yl)benzoate] it was 112 nM; in that of `CC(=O)O[C@@H]1CCC[C@H]1C(C#N)(c1cccc(C(F)(F)F)c1)C1CCN(CC2CN(c3ccc(C#N)cc3)C2)CC1` (mixture of isomers) [compound 418, rac-(1R,2S)-2-(cyano(1-((1-(4-cyanophenyl)azetidin-3-yl)methyl)piperidin-4-yl)(3-(trifluoromethyl)phenyl)methyl)cyclopentyl acetate], 923000 nM.
The value for `N#CC(Cc1ccncc1)(c1ccccc1)C1CCN(CC2CN(c3ccc(S(=O)(=O)c4ccncc4)cc3)C2)CC1` (stereo not shown) [compound 343, 2-phenyl-3-(pyridin-4-yl)-2-(1-((1-(4-(pyridin-4-ylsulfonyl)phenyl)azetidin-3-yl)methyl)piperidin-4-yl)propanenitrile] was 8800 nM; that for `N#Cc1cc2cc(CCN3CCC(C4(C5CCCC5)NCCc5ccccc54)CC3)ccc2[nH]1` (stereo not shown) [compound 66, 5-(2-(4-(1-cyclopentyl-1,2,3,4-tetrahydroisoquinolin-1-yl)piperidin-1-yl)ethyl)-1H-indole-2-carbonitrile] was 1100 nM; that for `O=C(c1ccn(-c2ccc(S(=O)(=O)C3CC3)cc2)c1)N1CCC(C2(C3CCCC3)NCCc3ccccc32)CC1` (stereo not shown) [compound 122, (4-(1-cyclopentyl-1,2,3,4-tetrahydroisoquinolin-1-yl)piperidin-1-yl)(1-(4-(cyclopropylsulfonyl)phenyl)-1H-pyrrol-3-yl)methanone] was 57500 nM.
In the case of `CCO[C@@H]1CCC[C@H]1C(C#N)(c1ccccc1)C1CCN(CC2CN(c3ccc(S(C)(=O)=O)cc3)C2)CC1` (mixture of isomers) [compound 189, rac-2-((1S,2R)-2-ethoxycyclopentyl)-2-(1-((1-(4-(methylsulfonyl)phenyl)azetidin-3-yl)methyl)piperidin-4-yl)-2-phenylacetonitrile], the half-maximal inhibitory concentration (IC50) was 20500 nM.
Consider `O=S(=O)(c1ccc(OC2CC(N3CCC(C4(C5CCCC5)NCCc5ccccc54)CC3)C2)cc1)C1CC1` (stereo not shown) [compound 90, 1-cyclopentyl-1-(1-((1r,3r)-3-(4-(cyclopropylsulfonyl)phenoxy)cyclobutyl)piperidin-4-yl)-1,2,3,4-tetrahydroisoquinoline], for which the IC50 amounted to 2400 nM.
With `N#CC(c1ccccc1)(C1CCN(CC2CN(c3ccc(S(=O)(=O)c4ccncc4)cc3)C2)CC1)[C@H]1CCC[C@@H]1CO` (mixture of isomers) [compound 258, rac-2-((1S,2S)-2-(hydroxymethyl)cyclopentyl)-2-phenyl-2-(1-((1-(4-(pyridin-4-ylsulfonyl)phenyl)azetidin-3-yl)methyl)piperidin-4-yl)acetonitrile], the IC50 stood at 563 nM.
For `O=C(CN1CCC(C2(C3CCCC3)NCCc3ccccc32)CC1)N1CCc2ccccc2C1` (stereo not shown) [compound 84, 2-(4-(1-cyclopentyl-1,2,3,4-tetrahydroisoquinolin-1-yl)piperidin-1-yl)-1-(3,4-dihydroisoquinolin-2(1H)-yl)ethan-1-one], the 50% inhibitory concentration (IC50) is 8200 nM.
Take `N#Cc1ccc(OCCCN2CCC(C3(C4CCCC4)NCCc4ccccc43)C2)cc1` (stereo not shown) [compound 108, 4-(3-(3-(1-cyclopentyl-1,2,3,4-tetrahydroisoquinolin-1-yl)pyrrolidin-1-yl)propoxy)benzonitrile]: the IC50 turned out to be 56500 nM.
Consider `N#Cc1ccc(N2CC(CN3CCC(C4(C5CCCC5)NCCc5ccccc54)CC3)C2)c(Cl)c1` (stereo not shown) [compound 139, 3-chloro-4-(3-((4-(1-cyclopentyl-1,2,3,4-tetrahydroisoquinolin-1-yl)piperidin-1-yl)methyl)azetidin-1-yl)benzonitrile], for which the IC50 is 73 nM.
With `O=S(=O)(c1ccc(N2CC(F)(CN3CCC(C4(C5CCCC5)NCCc5ccccc54)CC3)C2)cc1)C1CC1` (stereo not shown) [compound 140, 1-cyclopentyl-1-(1-((1-(4-(cyclopropylsulfonyl)phenyl)-3-fluoroazetidin-3-yl)methyl)piperidin-4-yl)-1,2,3,4-tetrahydroisoquinoline], the IC50 turned out to be 104 nM.
In the case of `COC(=O)N[C@H]1CCC[C@@H]1C(C#N)(c1ccccc1)C1CCN(CC2CN(c3ccccc3)C2)CC1` (mixture of isomers) [compound 402, methyl rac-((1S,2R)-2-(cyano(phenyl)(1-((1-phenylazetidin-3-yl)methyl)piperidin-4-yl)methyl)cyclopentyl) carbamate] it was 2400 nM; in that of `CC(=O)N1CCC[C@H]1C(C#N)(c1ccccc1)C1CCN(CCCOc2ccc(C#N)cc2)CC1` (stereo partly drawn) [compound 330, 4-(3-(4-(((S)-1-acetylpyrrolidin-2-yl)(cyano)(phenyl)methyl)piperidin-1-yl)propoxy)benzonitrile], 111000 nM; in that of `Cc1cc(S(=O)(=O)c2ccc(N3CC(CN4CCC(C5(C6=CCCC6)CN(C)Cc6ccccc65)CC4)C3)cc2)ccn1` (stereo not shown) [compound 205, 4-(cyclopent-1-en-1-yl)-2-methyl-4-(1-((1-(4-((2-methylpyridin-4-yl)sulfonyl)phenyl)azetidin-3-yl)methyl)piperidin-4-yl)-1,2,3,4-tetrahydroisoquinoline], 88 nM.
Turning to `CN1COCN([C@H]2CCC[C@@H]2C(C#N)(c2ccccc2)C2CCN(CC3CN(c4ccc(S(=O)(=O)c5ccncc5)cc4)C3)CC2)C1=O` (mixture of isomers) [compound 279, rac-2-((1R,2S)-2-(5-methyl-4-oxo-1,3,5-oxadiazinan-3-yl)cyclopentyl)-2-phenyl-2-(1-((1-(4-(pyridin-4-ylsulfonyl)phenyl)azetidin-3-yl)methyl)piperidin-4-yl)acetonitrile], the IC50 worked out at 65 nM.
For the molecule `CN1Cc2cccc(F)c2C(C2CCCC2)(C2CCN(CCCOc3ccc(C#N)cc3)CC2)C1` (stereo not shown) [compound 31, 4-(3-(4-(4-cyclopentyl-5-fluoro-2-methyl-1,2,3,4-tetrahydroisoquinolin-4-yl)piperidin-1-yl)propoxy)benzonitrile], the IC50 came out at 37 nM.
As to `CO[C@H]1CCC[C@@H]1C(C#N)(c1ccccc1)C1CCN(CC2CN(c3ccc(S(C)(=O)=O)cc3)C2)CC1` (mixture of isomers) [compound 181, rac-2-((1R,2S)-2-methoxycyclopentyl)-2-(1-((1-(4-(methylsulfonyl)phneyl)azetidin-3-yl)methyl)piperidin-4-yl)-2-phenylacetonitrile], the 50% inhibitory concentration (IC50) is 18100 nM.
